The substances below were run on Staphylococcus aureus, MRSA ST80 (2003) (assay: MIC, NCCLS/CLSI guidelines (Example 5), strain E). Settings: relative to wildtype Plectasin; average of two independent experiments.
Format: cell-based
Protocol: (§1) Plectasin wild-type (SEQ ID NO: 1) and several variants of Plectasin were expressed and purified. The Minimal Inhibitory Concentration (MIC) was determined to test for their antimicrobial activity following the NCCLS guidelines from CLSI (Clinical and Laboratory Standards Institute; formerly known as National Committee for Clinical and Laboratory Standards).
(§2) The peptides were tested against the following strains: • A: Staphylococcus aureus, ATCC 29213; • B: Staphylococcus aureus, ATCC 25923; • C: Staphylococcus aureus, ATCC 29737; • D: Staphylococcus aureus, MRSA ST5 (2001), multi-resistant clinical human isolate from Statens Serum Institut, Denmark; • E: Staphylococcus aureus, MRSA ST80 (2003), multi-resistant clinical human isolate from Statens Serum Institut, Denmark.
(§3) All MIC values represent an average of two independent experiments; and all results in Table 5 are expressed relative to wildtype Plectasin:
(§4) 0: >100% of Plectasin wildtype MIC; 1: 80-100% of Plectasin wildtype MIC; 2: 50-80% of Plectasin wildtype MIC; 3: <50% of Plectasin wildtype MIC.

| Substance | Relative MIC, strain E |
| --- | --- |
| N5S + M13W + N17R: variant of Plectasin (SEQ ID NO: 1) (GFGCSGPWDEDDWQCHRHCKSIKGYKGGYCAKGGFVCKCY) | 3 (<50% of Plectasin wildtype MIC) |

What follows are substances tested on Staphylococcus aureus, MRSA ST5 (2001) (assay: MIC, NCCLS/CLSI guidelines (Example 5), strain D). Settings: relative to wildtype Plectasin; average of two independent experiments.
Format: cell-based
Protocol: as §1, §2, §3, §4

| Substance | Relative MIC, strain D |
| --- | --- |
| GFGCNGPWSEDDMQCHNHCKSIKGYKGGYCAKGGFVCKCY [Mutation D9S] | 2 (50-80% of Plectasin wildtype MIC) |
| GFGCSGPWDEDDMRCHSHCKSIRGYKGGYCAKGGFVCKCY [N5S + Q14R + N17S + K23R] | 3 (<50% of Plectasin wildtype MIC) |
| M13L + Q14K + K26R: variant of Plectasin (SEQ ID NO: 1) (GFGCNGPWDEDDLKCHNHCKSIKGYRGGYCAKGGFVCKCY) | 3 (<50% of Plectasin wildtype MIC) |
| N5S + M13W + N17R: variant of Plectasin (SEQ ID NO: 1) (GFGCSGPWDEDDWQCHRHCKSIKGYKGGYCAKGGFVCKCY) | 3 (<50% of Plectasin wildtype MIC) |

The substances below were run on Staphylococcus aureus, ATCC 25923 (assay: MIC, NCCLS/CLSI guidelines (Example 5), strain B). Settings: relative to wildtype Plectasin; average of two independent experiments.
Format: cell-based
Protocol: as §1, §2, §3, §4

| Substance | Relative MIC, strain B |
| --- | --- |
| GFGCNGPWSEDDMQCHNHCKSIKGYKGGYCAKGGFVCKCY [Mutation D9S] | 3 (<50% of Plectasin wildtype MIC) |
| GFGCSGPWDEDDMRCHSHCKSIRGYKGGYCAKGGFVCKCY [N5S + Q14R + N17S + K23R] | 3 (<50% of Plectasin wildtype MIC) |

What follows are substances tested on Staphylococcus carnosus ATCC51365 (assay: Yeast screening assay: radial diffusion assay of yeast supernatants). Settings: yeast supernatant, clearing zone in radial diffusion assay.
Format: cell-based
Set-up: key: An activity of 3 is better than Plectasin; An activity of 2 corresponds to the activity of Plectasin; 1 is worse than Plectasin
Method in brief: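 Supernatants from S. cerevisiae expressing plectasin variants, grown 3 days at 30 °C in galactose medium, were applied to agarose containing 5×10^5 cfu/mL S. carnosus. Plates were incubated 3 h at 37 °C, overlaid, left overnight and MTT-stained. Clearing zones were scored as 2 = plectasin-like, 3 = better, 1 = worse.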

| Substance | Activity (antimicrobial activity relative to the activity of plectasin) |
| --- | --- |
| GFGCNGPWDEDDTQCHNHCKSIKGYKGGYCAKGGFVCKCY [Mutation M13T] | 2 |
| GFGCNGPWDEGDMQCHNHCKSVKGYKGGYCAKGGFVCKCY [D11G + I22V] | 3 |
| GFGCNGPWGEDDMQCHNHCKSIKGYKGGYCAKGGFVCKCY [Mutation D9G] | 3 |
| GFGCNGPWKEDDMQCHNHCKSIKGYKGGYCAKGGFVCKCY [Mutation D9K] | 3 |
| GFGCNGPWSEDDMQCHNHCKSIKGYKGGYCAKGGFVCKCY [Mutation D9S] | 3 |
| GFGCNGPWVEDDMQCHNHCKSIKGYKGGYCAKGGFVCKCY [Mutation D9V] | 3 |
| GFGCSGPWDEDDMQCHNHCKSIKGYKGGYCAKGGFVCKCY [Mutation N5S] | 3 |
| GFGCSGPWDEDDMRCHSHCKSIRGYKGGYCAKGGFVCKCY [N5S + Q14R + N17S + K23R] | 3 |

What follows are substances tested on Staphylococcus aureus, ATCC 29737 (assay: MIC, NCCLS/CLSI guidelines (Example 5), strain C). Settings: relative to wildtype Plectasin; average of two independent experiments.
Format: cell-based
Protocol: as §1, §2, §3, §4

| Substance | Relative MIC, strain C |
| --- | --- |
| GFGCNGPWSEDDMQCHNHCKSIKGYKGGYCAKGGFVCKCY [Mutation D9S] | 3 (<50% of Plectasin wildtype MIC) |
| GFGCSGPWDEDDMRCHSHCKSIRGYKGGYCAKGGFVCKCY [N5S + Q14R + N17S + K23R] | 3 (<50% of Plectasin wildtype MIC) |
| M13L + Q14K + K26R: variant of Plectasin (SEQ ID NO: 1) (GFGCNGPWDEDDLKCHNHCKSIKGYRGGYCAKGGFVCKCY) | 3 (<50% of Plectasin wildtype MIC) |
| N5S + M13W + N17R: variant of Plectasin (SEQ ID NO: 1) (GFGCSGPWDEDDWQCHRHCKSIKGYKGGYCAKGGFVCKCY) | 3 (<50% of Plectasin wildtype MIC) |

The substances below were run on panel of 6 different strains of Staphylococcus aureus (assay: Average MIC, NCCLS/CLSI guidelines using caMHB (Example 6)). Settings: average over 6 S. aureus strains, duplicate; MIC above 32 counted as 64; read after 18-24 hours at 37° C.
Format: cell-based
Protocol: A large number of antimicrobial peptides of the invention were tested against a panel of 6 different strains of Staphylococcus aureus listed below:
Staphylococcus aureus, ATCC29213, MSSA, NCCLS reference strain; Staphylococcus aureus, ATCC25923, MSSA, NCCLS reference strain; Staphylococcus aureus, ATCC29737, MSSA; Staphylococcus aureus, E33235, MSSA; Staphylococcus aureus, 698-01, MRSA ST5, Str, Kan, Oxa; Staphylococcus aureus, 566-03, MRSA ST80, Oxa, Tet, Fus, Kan.
The staphylococci were exposed to the following peptide concentrations: 32; 16; 8; 4; 2; 1; 0.5; 0.25; 0.13; […]; and 0.03 microgram/mL. All peptides were purified, HPLC quantified and the concentrated peptides (>160 micrograms/mL) were diluted to 160 micrograms/mL in peptide dilution buffer (0.1% BSA, 0.01% Acetic Acid).
The MIC determination was done essentially as described by NCCLS/CLSI guidelines using caMHB. The MICs were read after 18-24 hours of 37° C. incubations and recorded along with the CFU in the table below.
A total number of 95 antimicrobial peptides of the invention were evaluated in duplicate against the 6 bacterial strains described above.
In the majority of the double determinations (93%), the MIC varied <2 fold. An average MIC is tabulated below. If the MIC was above 32 micrograms/mL, a value of 64 was used to calculate the average.

| Substance | Average MIC |
| --- | --- |
| GFGCNGPWDEDDTQCHNHCKSIKGYKGGYCAKGGFVCKCY [Mutation M13T] | 26 micrograms/mL |
| GFGCNGPWDEGDMQCHNHCKSVKGYKGGYCAKGGFVCKCY [D11G + I22V] | 17 micrograms/mL |
| GFGCNGPWGEDDMQCHNHCKSIKGYKGGYCAKGGFVCKCY [Mutation D9G] | 21 micrograms/mL |
| GFGCNGPWKEDDMQCHNHCKSIKGYKGGYCAKGGFVCKCY [Mutation D9K] | 7 micrograms/mL |
| GFGCNGPWSEDDMQCHNHCKSIKGYKGGYCAKGGFVCKCY [Mutation D9S] | 7 micrograms/mL |
| GFGCNGPWVEDDMQCHNHCKSIKGYKGGYCAKGGFVCKCY [Mutation D9V] | 30 micrograms/mL |
| GFGCSGPWDEDDMQCHNHCKSIKGYKGGYCAKGGFVCKCY [Mutation N5S] | 24 micrograms/mL |
| GFGCSGPWDEDDMRCHSHCKSIRGYKGGYCAKGGFVCKCY [N5S + Q14R + N17S + K23R] | 8 micrograms/mL |
| M13L + Q14K + K26R: variant of Plectasin (SEQ ID NO: 1) (GFGCNGPWDEDDLKCHNHCKSIKGYRGGYCAKGGFVCKCY) | 9 micrograms/mL |
| N5S + M13W + N17R: variant of Plectasin (SEQ ID NO: 1) (GFGCSGPWDEDDWQCHRHCKSIKGYKGGYCAKGGFVCKCY) | 2 micrograms/mL |

Each substance was assayed on Staphylococcus aureus, ATCC 29213 (assay: MIC, NCCLS/CLSI guidelines (Example 5), strain A). Settings: relative to wildtype Plectasin; average of two independent experiments.
Format: cell-based
Protocol: as §1, §2, §3, §4

| Substance | Relative MIC, strain A |
| --- | --- |
| GFGCNGPWSEDDMQCHNHCKSIKGYKGGYCAKGGFVCKCY [Mutation D9S] | 2 (50-80% of Plectasin wildtype MIC) |
| GFGCSGPWDEDDMRCHSHCKSIRGYKGGYCAKGGFVCKCY [N5S + Q14R + N17S + K23R] | 1 (80-100% of Plectasin wildtype MIC) |
| M13L + Q14K + K26R: variant of Plectasin (SEQ ID NO: 1) (GFGCNGPWDEDDLKCHNHCKSIKGYRGGYCAKGGFVCKCY) | 3 (<50% of Plectasin wildtype MIC) |
| N5S + M13W + N17R: variant of Plectasin (SEQ ID NO: 1) (GFGCSGPWDEDDWQCHRHCKSIKGYKGGYCAKGGFVCKCY) | 3 (<50% of Plectasin wildtype MIC) |
